Results taken from patent publication US20200253914A1, “NOVEL FORMULATIONS” (priority 2015, published 2020).
Where two headings read alike, the source gives them in different places.

Tests used:
HaCaT cells = assay: HaCaT cell viability assay for skin irritancy potential; assay type: cell-based
Procedure: Irritancy potential of the individual surfactants as well as formulation chassis (placebo formulations) were evaluated using an in house in vitro test. The method utilizes HaCaT cell viability as a marker for irritation.
Briefly, HaCaT cells were seeded in 96-well plates (Nunc 96 well plate, Cat #165305) at density of 2×10^4 cells per well, and grown overnight before treatments. Test articles were diluted in water to make 10% stock solutions, which were serially diluted in DMEM to twice to the final treatment concentrations. Cells were treated in triplicates by adding 100 μl of serially diluted test articles to each well containing 100 μl fresh medium. After incubation at 37° C., 5% CO2 for 10 minutes in the presence of diluted placebos, cells were then washed with 200 μl of DPBS with Ca^++ and Mg^++ (Life Technologies #14040133) for 3 times. CellTiter-Blue reagent (Promega, G8081, 10× stock solution) was diluted to 1× working solution in cell culture medium and added to cells (100 μl/well). Cells were incubated at 37° C., 5% CO2 for 60 minutes and the cell viability was measured using fluorescent activity (Ex. 560 nm, Em. 590 nm). All treated samples were normalized to the untreated control. Cell viabilities were then used to assess skin irritation potential.
Cell viability studies were conducted to assess the skin irritation of the formulations using Neutrogena Ultra Gentle Daily Cleanser and PanOxyl 10 (Placebo) as the comparators. The results are shown in FIG. 2 for the 2.5% BPO formulations and FIG. 3 for the 10% BPO formulations. Sodium Lauryl […] (SLS) was used as the positive control. […] All 6 formulations outperformed Neutrogena Ultra Gentle with formulation #3(2.5%) being more than 3 fold milder than Neutrogena Ultra Gentle cleanser. The 2.5% prototypes were slightly milder than the 10% formulations. This is expected due to higher concentration of the surfactants in the 10% formulations.

[1] = BPO chemical stability in wash formulations and shelf life prediction; assay type: physicochemical; details: increasing sorbitol concentrations in wash formulations
Procedure: BPO stability in the formulations of the present invention were assessed over time at 25° C./60% RH and 30° C./65% RH using environmentally controlled chambers. Specifically formulations containing 2.5% BPO or 10% BPO in glass vials were placed on stability, and monitored for BPO degradation.
Chemical stability of the BPO in surfactant based wash products is a challenge due to increased solubility of the BPO in these systems.

[2] = in water and propylene glycol, after 90 days of storage; cited from earlier work
[3] = HaCaT cell viability, 10 minutes treatment, left = mildest, SLS positive control

Compound	rank order of screened surfactants for mildness, based on EC 50 values (HaCaT cells; [3])	also measured
Sodium Hydroxyethylglycinate cocoglucoside crosspolymer and sodium bis-hydroxytethylglycinate lauryl glucoside crosspolymer [PolySuga Glycinate C]		rank order of screened surfactants for mildness, based on EC 50 values (HaCaT cells): > PolySuga Phos 1200P
sodium C14-16 Olefin sulfonate [Colonial AOS]	> Cola Lipid C	
CCCCCCCCCCO[C@@H]1O[C@H](CO)[C@@H](O)[C@H](O)[C@H]1O [Plantaren 2000 N UP, decyl glucoside]	> Colonial AOS	
Sodium C14-C17 sec-alkyl sulfonate [Hostapur SAS 60]	SLS	
OC[C@@H](O)[C@@H](O)[C@H](O)[C@@H](O)CO [sorbitol, D-Sorbitol]		effect of humectant on BPO stability (benzoic acid generated) [1]: improve BPO stability
Sodium Laurylglucoside Hydroxypropylsufonate [Suganate 160 NC]		rank order of screened surfactants for mildness, based on EC 50 values (HaCaT cells): > Plantaren 2000 N UP
O=C(OOC(=O)c1ccccc1)c1ccccc1 [BPO, Benzoyl peroxide]		degradation of benzoyl peroxide in suspension (dispersed form) [2]: not degraded
Cocamidopropyl PG-Dimonium Chloride Phosphate [Cola Lipid C]	> SLS	
